Laboratory results reported in PubChem BioAssay (NCI).
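Values below derive from 48-hour exposures of cells grown in 96-well plates, with endpoints linearly interpolated between the two concentrations bracketing the appropriate inhibition level. GI50 is the concentration that inhibits growth by half. Definition used: TGI = concentration required for complete inhibition of growth.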

How the values were obtained:
Test in all cases: DTP human tumour cell line panel, 48 h
CCRF-CEM leukemia = system: CCRF-CEM leukemia
HT29 colon = system: HT29 colon
SR leukemia = system: SR leukemia
HOP-62 NSCLC = system: HOP-62 NSCLC
SW-620 colon = system: SW-620 colon
EKVX NSCLC = system: EKVX NSCLC
K-562 leukemia = system: K-562 leukemia
UACC-257 melanoma = system: UACC-257 melanoma
SNB-19 CNS = system: SNB-19 CNS
SK-OV-3 ovarian = system: SK-OV-3 ovarian

Structure (SMILES)	TGI (CCRF-CEM leukemia)	TGI (HT29 colon)	TGI (SR leukemia)	TGI (HOP-62 NSCLC)	TGI (SW-620 colon)	TGI (EKVX NSCLC)	TGI (K-562 leukemia)	TGI (UACC-257 melanoma)	TGI (SNB-19 CNS)	TGI (SK-OV-3 ovarian)	GI50 (CCRF-CEM leukemia)	GI50 (HT29 colon)	GI50 (SR leukemia)	GI50 (HOP-62 NSCLC)	GI50 (SW-620 colon)	GI50 (EKVX NSCLC)	GI50 (K-562 leukemia)	GI50 (UACC-257 melanoma)	GI50 (SNB-19 CNS)	GI50 (SK-OV-3 ovarian)
Cc1cc(-c2nc3ccccc3s2)ccc1NC(=O)[C@@H](N)CCCCN	22.5 µM	16.9 µM	> 54.7 µM	25.9 µM	25.3 µM	25.1 µM	> 54 µM	37.8 µM	29.4 µM	27.2 µM	–	–	–	–	–	–	–	–	–	–
O=C(O)c1cc(-c2ccc3c(O)c(O)ccc3c2)ccc1O	33.6 µM	42.5 µM	42 µM	> 75 µM	36.8 µM	> 75 µM	32.2 µM	> 75 µM	> 75 µM	> 75 µM	–	–	–	–	–	–	–	–	–	–
c1csc(-c2ccc(-c3cccs3)c3nsnc23)c1	31.5 µM	> 100 µM	39.9 µM	> 95.7 µM	> 50 µM	> 100 µM	37.9 µM	> 100 µM	> 100 µM	> 96.4 µM	–	–	–	–	–	–	–	–	–	–
CC(C)(C)OC(=O)NCCC(N)=S	> 100 µM	> 100 µM	> 100 µM	> 100 µM	> 100 µM	> 100 µM	> 100 µM	> 100 µM	> 100 µM	> 100 µM	–	–	–	–	–	–	–	–	–	–
CSC(=Nc1ccccc1)N(c1ccccc1)c1nc(=[N+](C)C)ss1	4.48 µM	0.383 µM	8.01 µM	27.2 µM	3.27 µM	29.5 µM	2.89 µM	4.96 µM	15.4 µM	38.5 µM	–	–	–	–	–	–	–	–	–	–
N#CC(N=Nc1ccc(Cl)cc1)c1nc2ccccc2o1 (configuration not stated)	45.6 µM	> 100 µM	> 100 µM	> 100 µM	–	> 100 µM	50.2 µM	> 100 µM	> 100 µM	> 100 µM	–	–	–	–	–	–	–	–	–	–
COC(=O)CN1c2nc(C#N)c(C#N)nc2N(CC(=O)OC)c2nc(C#N)c(C#N)nc21	> 24.3 µM	12.1 µM	6.66 µM	34.3 µM	> 25.9 µM	> 51.3 µM	> 33.9 µM	> 100 µM	> 65.9 µM	35.2 µM	–	–	–	–	–	–	–	–	–	–
CC(O)CCCOC(c1ccccc1)(c1ccccc1)c1ccccc1 (configuration not stated)	> 67.2 µM	26.2 µM	> 57.4 µM	31.4 µM	32.3 µM	28.1 µM	> 100 µM	30.4 µM	29.6 µM	30.8 µM	–	–	–	–	–	–	–	–	–	–
Cc1cn(-c2cc(C(=O)Nc3cccc(-n4ccc5c(NC(=O)c6ccccc6)nccc54)c3)cc(C(F)(F)F)c2)cn1	2.09 µM	1.04 µM	–	15.3 µM	1.78 µM	30.2 µM	–	19.7 µM	25.5 µM	3.53 µM	0.299 µM	0.29 µM	0.14 µM	0.628 µM	0.39 µM	2.32 µM	0.292 µM	0.51 µM	0.579 µM	0.325 µM
CC(=O)OCC1OC(n2cc(I)c(=O)[nH]c2=O)C(OC(C)=O)C(OC(C)=O)C1OC(C)=O (configuration not stated)	> 100 µM	> 100 µM	> 100 µM	> 100 µM	> 100 µM	> 100 µM	> 100 µM	> 100 µM	> 100 µM	> 100 µM	–	–	–	–	–	–	–	–	–	–
COC(C)(C)[C@@H](O)[C@H]1C[C@H](C)[C@@]2(CC[C@]3(C)[C@@H]2CC[C@@H]2[C@@]4(C)CC[C@@H](OC(C)=O)C(C)(C)[C@@H]4C[C@@H](OC4OC(COC(C)=O)C(O)C(O)C4O)[C@]23C)O1 (some centres not stated)	> 37 µM	4.07 µM	5.25 µM	25 µM	20.2 µM	19.5 µM	21.3 µM	20.9 µM	21.3 µM	15.1 µM	–	–	–	–	–	–	–	–	–	–
CCOC(CNCCC(=O)OC)OCC	> 10 µM	> 10 µM	> 10 µM	> 10 µM	> 10 µM	> 10 µM	> 10 µM	> 10 µM	> 10 µM	> 10 µM	–	–	–	–	–	–	–	–	–	–
CCc1c[n+]([O-])c(C)cc1[N+](=O)[O-]	> 100 µM	> 100 µM	> 100 µM	> 100 µM	> 100 µM	> 100 µM	> 100 µM	> 100 µM	> 100 µM	> 100 µM	–	–	–	–	–	–	–	–	–	–
C=C1c2cc3c(cc2CC12Cc1cc4c(cc1C2=O)CCC4)CCC3 (configuration not stated)	> 100 µM	> 100 µM	> 100 µM	> 100 µM	> 100 µM	> 100 µM	> 100 µM	> 100 µM	> 100 µM	> 100 µM	–	–	–	–	–	–	–	–	–	–
O=C1CC(C(O)(C(F)(F)F)C(F)(F)Cl)CCC1C(O)(C(F)(F)F)C(F)(F)Cl (configuration not stated)	> 10 µM	> 10 µM	> 10 µM	> 10 µM	> 10 µM	> 10 µM	> 10 µM	> 10 µM	> 10 µM	> 10 µM	–	–	–	–	–	–	–	–	–	–
O=[N+]([O-])c1ccc(/C=C/c2cc(-c3ccccc3)nc3ccc4ccccc4c23)cc1	> 100 µM	> 100 µM	> 100 µM	> 100 µM	> 100 µM	> 100 µM	> 100 µM	> 100 µM	> 100 µM	> 100 µM	–	–	–	–	–	–	–	–	–	–
CCOC(=O)C(Cl)(Cl)/S(=N\S(=O)(=O)c1ccccc1)NC(=O)c1ccccc1 (configuration not stated)	> 100 µM	> 100 µM	> 100 µM	> 100 µM	> 100 µM	> 100 µM	> 100 µM	> 100 µM	> 100 µM	> 100 µM	–	–	–	–	–	–	–	–	–	–
CCC1=CC2CN3Cn4c(c(COCc5c6n(c7ccccc57)CN5CC7C=C(CC)C5C6(C(=O)OC)C7)c5ccccc54)C(C(=O)OC)(C2)C13	> 100 µM	> 100 µM	> 100 µM	> 100 µM	> 100 µM	> 100 µM	> 100 µM	> 100 µM	> 100 µM	> 100 µM	–	–	–	–	–	–	–	–	–	–
NNC1=N/C(=C\c2ccco2)C(Cl)=N1	> 100 µM	> 100 µM	72.1 µM	> 100 µM	> 100 µM	> 100 µM	42 µM	> 100 µM	> 100 µM	> 100 µM	–	–	–	–	–	–	–	–	–	–
S=c1[nH]c2ccc(Br)cc2c(=S)s1	> 100 µM	> 100 µM	> 100 µM	> 100 µM	> 100 µM	91.3 µM	> 100 µM	69.5 µM	> 100 µM	> 100 µM	–	–	–	–	–	–	–	–	–	–
